Reference: ChEMBL document CHEMBL3044906, “Synthesis and blood glucose lowering activity of some novel benzenesulfonylthiourea derivatives substituted with 6-aryl-4,5-dihyropyridazin-3(2H)-ones” (2012)
Calls of active or inactive are those of the source. No cut-off for these calls is given here.

How the values were obtained:
Rattus norvegicus [1] = test: Antihyperglycemic activity in Rattus norvegicus Wistar albino (rat) assessed as blood glucose level at 20 mg/kg, po administered 30 min before 3 g/kg, po glucose challenge by oral glucose tolerance test (reference value: 149 +/- 6.3 mg/dl); type: functional
Rattus norvegicus [2] = test: Antihyperglycemic activity in Rattus norvegicus Wistar albino (rat) assessed as reduction in blood glucose level at 20 mg/kg, po administered 30 min before 3 g/kg, po glucose challenge by oral glucose tolerance test; type: functional

SMILES | Activity (Rattus norvegicus [1]) [mg/dL] | inhibition (Rattus norvegicus [2]) | inhibition in vivo at 20 mg/kg (Rattus norvegicus [2]) [%]
COc1ccc(Cl)cc1C(=O)NCCc1ccc(S(=O)(=O)NC(=O)NC2CCCCC2)cc1 [GLYBURIDE] | 94.3 | – | –
O=C1CCC(c2ccc(-c3ccccc3)cc2)=NN1c1ccc(S(=O)(=O)NC(=S)Nc2ccccc2)cc1 | 166 | inactive | –
CCCNC(=S)NS(=O)(=O)c1ccc(N2N=C(c3ccc(OC)cc3)CCC2=O)cc1 | 132 | – | 37.1
CCCNC(=S)NS(=O)(=O)c1ccc(N2N=C(c3ccc(Oc4ccccc4)cc3)CCC2=O)cc1 | 152 | inactive | –
CCCNC(=S)NS(=O)(=O)c1ccc(N2N=C(c3ccc(Cl)cc3)CCC2=O)cc1 | 132.5 | – | 32.7
O=C1CCC(c2ccc(Oc3ccccc3)cc2)=NN1c1ccc(S(=O)(=O)NC(=S)NCc2ccccc2)cc1 | 147.5 | – | 3
O=C1CCC(c2ccc(-c3ccccc3)cc2)=NN1c1ccc(S(=O)(=O)NC(=S)NCc2ccccc2)cc1 | 137.5 | – | 24.8
O=C1CCC(c2ccc(Cl)cc2)=NN1c1ccc(S(=O)(=O)NC(=S)NCc2ccccc2)cc1 | 128.5 | – | 38.8
O=C1CCC(c2ccccc2)=NN1c1ccc(S(=O)(=O)NC(=S)NCc2ccccc2)cc1 | 139 | – | 26.6
Cc1ccc(C2=NN(c3ccc(S(=O)(=O)NC(=S)NCc4ccccc4)cc3)C(=O)CC2)cc1 | 136 | – | 21.3
CCCNC(=S)NS(=O)(=O)c1ccc(N2N=C(c3ccc(C)cc3)CCC2=O)cc1 | 134.5 | – | 30.9
CCCNC(=S)NS(=O)(=O)c1ccc(N2N=C(c3ccccc3)CCC2=O)cc1 | 160 | inactive | –
COc1ccc(C2=NN(c3ccc(S(=O)(=O)NC(=S)Nc4ccccc4)cc3)C(=O)CC2)cc1 | 170.5 | inactive | –
CCc1ccc(C2=NN(c3ccc(S(=O)(=O)NC(=S)NCc4ccccc4)cc3)C(=O)CC2)cc1 | 148 | – | 3.8
COc1ccc(C2=NN(c3ccc(S(=O)(=O)NC(=S)NCc4ccccc4)cc3)C(=O)CC2)cc1 | 152 | – | 5.6
O=C1CCC(c2ccc(Cl)cc2)=NN1c1ccc(S(=O)(=O)NC(=S)Nc2ccccc2)cc1 | 148 | – | 4.7
